Tests used:
[1] = system: UKE-1 myelofibrosis cell line (TP53 wild-type); test: Pro-apoptotic protein expression in UKE-1 myelofibrosis cell line, intracellular flow cytometry; type: cell-based; conditions: UKE-1 cells, 2.5 pM, 24, 48 and 72 hours, time-dependent
Experimental: The compound of Formula (I) induces Bak, Bax and BIM expression in a myelofibrosis cell line. The UKE-1 myelofibrosis cell line (TP53 wild-type) was cultured for 24, 48 and 72 hours with 2.5 pM of compound (equivalent to levels observed in vivo following administration in patients) and stained with antibodies against various pro-apoptotic protein using intracellular flow cytometry techniques. […] The upper line is cells treated with the compound of Formula (I) while the lower line is a control (no treatment).

patients with R/R AML = test: Gene expression in PBMC from treated patients with R/R AML; type: in vivo, human
Experimental: For patients with R/R AML, the compound of Formula (I) was administered at 120 mg (n=3), 180 mg (n=2), 240 mg (n=8), or 360 mg (n=4) daily for QD for seven days in dose-escalation phase, with different ‘off-treatment’ duration depending on cohort assignments. Samples taken at pre-dose on Cycle 1, Day 1 (C1D1) and Cycle 1, Day 5 (C1D5).
Treatment of patients with R/R AML with the compound of Formula (I) induces expression of genes involved in the Bcl-2 apoptotic pathway. […] FIG. 8 illustrates induced expression of Bcl-2 genes in PBMC following treatment of R/R AML patients with the compound of Formula (I). Eighteen genes were included in analysis: BAD, BAX, BCL2L1, MCL1, BCL2, BID, CAPN2, CASP10, CASP3, CASP7, CASP8, CASP9, TNFRSF10A, TNFRSF10B, TP53, PUMA, NOXA and STAT3. Experimental data was obtained similar to the method set forth in Example 4.

[2] = system: MV-411 AML cell line (TP53 wild-type); test: Bcl-2 family protein expression in MV-411 AML cells, intracellular flow cytometry; type: cell-based; conditions: MV-411 cells, 72 hours, above the concentration to induce cell stasis
Experimental: (§1) The effect of the compound of Formula (I) on inducing apoptosis along with the expression of anti-apoptotic and pro-apoptotic protein expression in the MV-411 AML cell was assessed. […] Molecular Cancer Therapeutics. 2015 Mar. 1; 14(3):649-58. After 72 hours of culture with the compound of Formula (I), MV-411 (TP53 wt) and HEL-92 cells (TP53 mutant) were stained with antibodies against various Bcl-2 family proteins and data acquired using intracellular flow cytometry (FIG. 5(B)).

[3] = system: patients with R/R myelofibrosis; test: mRNA expression in cells isolated from treated patients with R/R myelofibrosis; type: in vivo, human; conditions: 120 mg or 240 mg for 5 or 7 days, C1D1 pre-dose vs C1D5
Experimental: Treatment of patients with the compound of Formula (I) induces p21, Bax and Puma expression in vivo in patients with R/R myelofibrosis or R/R AML. mRNA expression in cells isolated from patients was evaluated pre-dosing on day 1 and 24 hours after the first course of treatment with the compound of Formula (I) in patients with R/R myelofibrosis (FIG. 7(A)). The compound of Formula (I) is administered at 120 mg for 7 days for Cohort 1, 240 mg for 7 days for Cohort 2, 240 mg for 7 days for Cohort 3, and 240 mg for 5 days for Cohort 4. Samples taken at pre-dose on Cycle 1, Day 1 (C1D1) and Cycle 1, Day 5 (C1D5).

CLL tumor cells = test: p53 and Bcl-2 family protein expression and apoptosis (cPARP+) in patient CLL tumor cells treated ex vivo, intracellular flow cytometry; type: cell-based, human; conditions: CLL tumor cells on HS-5 stromal cells, 24 hours
Experimental: The effect of the compound of Formula (I) on the expression of p53 along with anti-apoptotic and pro-apoptotic proteins was assessed in tumors cells isolated from patients diagnosed with CLL. Blood samples were collected prior to the patient receiving any treatment. CLL tumor cells were isolated and incubated on HS-5 stromal cells for 24 hours and then treated with the compound of Formula (I) for 24 hours. p53 and Bcl-2 family proteins were measured by intracellular flow cytometry and shown as median fluorescent intensity (MFI). The percent cPARP+ is shown above the level of basal spontaneous apoptosis. CLL tumor cells were cultured on HS-5 stromal cells were then treated with an increasing concentrations of the compound of Formula (I) for 24 hours. The result was an increase in intracellular P53 levels along with a decrease in anti-apoptotic Bcl-XL and Mcl-1 levels, and an increase in pro-apoptotic Bax.

[4] = system: HEL-92 cells (TP53 mutant); test: Bcl-2 family protein expression in HEL-92 cells, intracellular flow cytometry; type: cell-based; conditions: 72 hours
Experimental: as §1

[5] = 120-360 mg QD for seven days, C1D1 pre-dose vs C1D5

CC(C)[C@@H](CS(=O)(=O)C(C)C)N1C(=O)[C@@](C)(CC(=O)O)C[C@H](c2cccc(Cl)c2)[C@H]1c1ccc(Cl)cc1 [Formula (I), 2-((3R,5R,6S)-5-(3-chlorophenyl)-6-(4-chlorophenyl)-1-((S)-1-(isopropylsulfonyl)-3-methylbutan-2-yl)-3-methyl-2-oxopiperidin-3-yl) acetic acid]
protein expression of BIM [1]: induced protein expression
protein expression of Bak [1]: induced protein expression
protein expression of Bax [1]: induced protein expression
expression of Bax (gene expression) (patients with R/R AML; [5]): increased expression
expression of Puma (gene expression) (patients with R/R AML; [5]): increased expression
expression of p21 (gene expression) (patients with R/R AML; [5]): increased expression
expression of genes involved in the BCL2 family/apoptosis pathway (patients with R/R AML; cells isolated from peripheral blood (PBMC), eighteen genes): induced the expression
anti-apoptotic Bcl-2 family proteins [2]: decrease
pro-apoptotic effector protein Bak [2]: increase
pro-apoptotic effector protein Bax [2]: increase
expression of Bax (mRNA) [3]: increased expression
expression of p21 (mRNA) [3]: increased expression
expression of anti-apoptotic protein Bcl-2 (CLL tumor cells): decreased expression
expression of pro-apoptotic protein Bak (CLL tumor cells): increased expression
cell apoptosis (percent cPARP+ above basal spontaneous apoptosis) (CLL tumor cells; increasing concentrations): increased cell apoptosis in a dose-dependent manner
anti-apoptotic Bcl-XL levels (CLL tumor cells; increasing concentrations, MFI): decrease
anti-apoptotic Mcl-1 levels (CLL tumor cells; increasing concentrations, MFI): decrease
intracellular P53 levels (CLL tumor cells; increasing concentrations, MFI): increase
pro-apoptotic Bax levels (CLL tumor cells; increasing concentrations, MFI): increase
changes in Bcl-2 family proteins [4]: no changes

Reference: patent US20250134876A1, “METHODS OF TREATING A CANCER OVEREXPRESSING ONE OR MORE BCL-2 FAMILY PROTEINS” (Kartos Therapeutics, Inc., priority 2021, published 2025)
